Data from PubChem BioAssay (NCI).
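The compound was tested at five concentrations on cells cultured in 96-well plates, with a 48-hour exposure period. Here, GI50 denotes the concentration required for 50% inhibition of growth. TGI: concentration producing complete growth inhibition.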

Legend:
Assay in all cases: DTP human tumour cell line panel, 48 h
KM12 colon = system: KM12 colon
MDA-MB-231 breast = system: MDA-MB-231 breast
A549 NSCLC = system: A549 NSCLC
PC-3 prostate = system: PC-3 prostate
RPMI-8226 leukemia = system: RPMI-8226 leukemia
OVCAR-8 ovarian = system: OVCAR-8 ovarian
MOLT-4 leukemia = system: MOLT-4 leukemia
MDA-MB-435 = system: MDA-MB-435
UO-31 renal = system: UO-31 renal
RXF 393 renal = system: RXF 393 renal
NCI-H226 lung = system: NCI-H226 lung
786-0 renal = system: 786-0 renal
OVCAR-4 ovarian = system: OVCAR-4 ovarian
OVCAR-5 ovarian = system: OVCAR-5 ovarian
U251 CNS = system: U251 CNS
SF-295 CNS = system: SF-295 CNS
UACC-62 melanoma = system: UACC-62 melanoma
SK-OV-3 ovarian = system: SK-OV-3 ovarian
BT-549 breast = system: BT-549 breast
LOX IMVI melanoma = system: LOX IMVI melanoma
NCI-H23 lung = system: NCI-H23 lung
CAKI-1 renal = system: CAKI-1 renal
EKVX NSCLC = system: EKVX NSCLC
TK-10 renal = system: TK-10 renal
OVCAR-3 ovarian = system: OVCAR-3 ovarian
SK-MEL-5 melanoma = system: SK-MEL-5 melanoma
ACHN renal = system: ACHN renal
HCC-2998 colon = system: HCC-2998 colon
SNB-75 CNS = system: SNB-75 CNS
NCI-H522 lung = system: NCI-H522 lung
SN12C renal = system: SN12C renal
HCT-15 colon = system: HCT-15 colon
SNB-19 CNS = system: SNB-19 CNS
IGROV1 ovarian = system: IGROV1 ovarian
HCT-116 colon = system: HCT-116 colon
NCI-H460 lung = system: NCI-H460 lung
HS 578T breast = system: HS 578T breast
MALME-3M melanoma = system: MALME-3M melanoma
NCI/ADR-RES ovarian = system: NCI/ADR-RES ovarian
SF-268 CNS = system: SF-268 CNS
DU-145 prostate = system: DU-145 prostate
SK-MEL-28 melanoma = system: SK-MEL-28 melanoma
CCRF-CEM leukemia = system: CCRF-CEM leukemia
SR leukemia = system: SR leukemia
K-562 leukemia = system: K-562 leukemia
SF-539 CNS = system: SF-539 CNS
COLO 205 colon = system: COLO 205 colon
HT29 colon = system: HT29 colon
SK-MEL-2 melanoma = system: SK-MEL-2 melanoma
SW-620 colon = system: SW-620 colon
T-47D breast = system: T-47D breast
HOP-62 NSCLC = system: HOP-62 NSCLC
M14 melanoma = system: M14 melanoma
A498 renal = system: A498 renal
UACC-257 melanoma = system: UACC-257 melanoma
MCF7 breast = system: MCF7 breast
HOP-92 NSCLC = system: HOP-92 NSCLC

## O=S(=O)(NC1CC2CCC1C2)c1ccc2c(c1)C(=NO)c1cc(S(=O)(=O)NC3CC4CCC3C4)ccc1-2 (stereo unspecified)
KM12 colon
  GI50: 162 nM
MDA-MB-231 breast
  GI50: 106 nM
  TGI: 3130 nM
A549 NSCLC
  GI50: 1830 nM
  TGI: 22400 nM
PC-3 prostate
  GI50: 1860 nM
  TGI: 18300 nM
RPMI-8226 leukemia
  GI50: 238 nM
  TGI: > 100000 nM
OVCAR-8 ovarian
  GI50: 139 nM
  TGI: 2290 nM
MOLT-4 leukemia
  GI50: 13300 nM
  TGI: > 100000 nM
MDA-MB-435
  GI50: 1860 nM
  TGI: > 100000 nM
UO-31 renal
  GI50: 18.6 nM
  TGI: 37.6 nM
RXF 393 renal
  GI50: 292 nM
  TGI: 30200 nM
NCI-H226 lung
  GI50: 22200 nM
  TGI: > 100000 nM
786-0 renal
  GI50: 179 nM
  TGI: 326 nM
OVCAR-4 ovarian
  GI50: 677 nM
  TGI: 3370 nM
OVCAR-5 ovarian
  GI50: 453 nM
  TGI: 40500 nM
U251 CNS
  GI50: 371 nM
  TGI: 3670 nM
SF-295 CNS
  GI50: 2310 nM
  TGI: 8910 nM
UACC-62 melanoma
  GI50: 36000 nM
  TGI: > 100000 nM
SK-OV-3 ovarian
  GI50: 23200 nM
  TGI: > 86700 nM
BT-549 breast
  GI50: 1920 nM
  TGI: > 100000 nM
LOX IMVI melanoma
  GI50: 18.2 nM
  TGI: 37.1 nM
NCI-H23 lung
  GI50: 39.4 nM
  TGI: 182 nM
CAKI-1 renal
  GI50: 158 nM
  TGI: 344 nM
EKVX NSCLC
  GI50: 52.1 nM
  TGI: 201 nM
TK-10 renal
  GI50: 3100 nM
OVCAR-3 ovarian
  GI50: 598 nM
  TGI: > 100000 nM
SK-MEL-5 melanoma
  GI50: > 100000 nM
  TGI: > 100000 nM
ACHN renal
  GI50: 74.2 nM
  TGI: 986 nM
HCC-2998 colon
  GI50: 3750 nM
  TGI: > 100000 nM
SNB-75 CNS
  TGI: > 100000 nM
NCI-H522 lung
  GI50: 160 nM
  TGI: 1020 nM
SN12C renal
  GI50: 883 nM
  TGI: 25800 nM
HCT-15 colon
  GI50: 592 nM
  TGI: > 100000 nM
SNB-19 CNS
  GI50: 28900 nM
  TGI: > 100000 nM
IGROV1 ovarian
  GI50: 26.2 nM
  TGI: 132 nM
HCT-116 colon
  GI50: 655 nM
  TGI: > 100000 nM
NCI-H460 lung
  GI50: 437 nM
  TGI: 14200 nM
HS 578T breast
  GI50: 31600 nM
  TGI: > 100000 nM
MALME-3M melanoma
  GI50: 43.8 nM
  TGI: 173 nM
NCI/ADR-RES ovarian
  GI50: 7000 nM
  TGI: > 100000 nM
SF-268 CNS
  GI50: 2380 nM
  TGI: 99500 nM
DU-145 prostate
  GI50: 348 nM
  TGI: 8800 nM
SK-MEL-28 melanoma
  GI50: 60200 nM
  TGI: > 100000 nM
CCRF-CEM leukemia
  GI50: 25.7 nM
  TGI: 72.6 nM
SR leukemia
  GI50: 17.9 nM
  TGI: 56.3 nM
K-562 leukemia
  GI50: 444 nM
  TGI: > 100000 nM
SF-539 CNS
  GI50: 182 nM
  TGI: 396 nM
COLO 205 colon
  GI50: 23300 nM
  TGI: > 100000 nM
HT29 colon
  GI50: 220 nM
  TGI: 3010 nM
SK-MEL-2 melanoma
  GI50: 66700 nM
  TGI: > 100000 nM
SW-620 colon
  GI50: 527 nM
  TGI: 3870 nM
T-47D breast
  GI50: 1270 nM
  TGI: 5570 nM
HOP-62 NSCLC
  GI50: 268 nM
  TGI: 4950 nM
M14 melanoma
  GI50: 4420 nM
  TGI: > 100000 nM
A498 renal
  GI50: > 100000 nM
  TGI: > 100000 nM
UACC-257 melanoma
  GI50: > 100000 nM
  TGI: > 100000 nM
MCF7 breast
  GI50: 510 nM
  TGI: > 100000 nM
HOP-92 NSCLC
  GI50: 152 nM
  TGI: 426 nM
